Data as given in article PMC12624831, “Expanding Peptide Chemical Space via Acid-Mediated Arginine Modification” (Organic Letters, 2025).
*1 amine or outer side, *2 acyl side, *3 side chain or, on linkers, in order; H or OH if unused. Where a SMILES comes first, the peptide text is derived from it. [ ]: non-standard residue; d: D form. The star is where a group is joined. NH(CH2CH2O)2(CH2)6Cl = ClCCCCCCOCCOCCN*; Suc = O=C(CCC(=O)[*:2])[*:1]; 2Pyrimidinyl = c1cnc(*)nc1; Orn = NCCC[C@H](N)C(=O)O

Tested on: HEK cells stably expressing a HaloTag-GFP-mitochondrial localized construct
Test: Chloroalkane penetration/permeability assay (CAPA)
Type: in vitro ADME
Conditions: modified peptide versus its unmodified control (ct-1l, ct-1m)
Procedure: at room temperature. Peptides were synthesized using standard protocols. Peptides were cleaved from the resin using a cocktail of 95:5, trifluoroacetic acid:water for 2 h. The resin was removed by filtration, and the resulting solution was concentrated via air flow. The residue was washed with cold ether (3 x 10 mL), precipitating a white solid. Ether was removed via vacuum overnight. The white solid was diluted with ACN/H2O mixture. The resulting solution was purified by HPLC.
VI. BD FACSymphony™ Flow Cytometer. Flow cytometry analysis was performed on a BD FACSymphony™ system equipped with decagon (2-10 PMTs) or cascade (2-20 PMTs) detector arrays. […] Signal detection combines PMTs (side scatter/fluorescence) and photodiodes (forward scatter), with longpass dichroic and bandpass filters for wavelength selection. […] The absorbance of the molecule is 533 nm and emission is […]
VII. […] After recovery from selection and reaching near-confluency, the cells were deemed ready for CAPA experiments. […]
Experimental Protocol Design Control Implementation. […] No-molecule control wells receive only dilution buffer during the pulse step, thereby establishing the maximum red fluorescence baseline. […]

| SMILES | increase in membrane permeability following conversion of arginine into the amino pyrimidine derivative [fold] |
| --- | --- |
| CC[C@H](C)[C@H](NC(=O)[C@H](CO)NC(=O)[C@@H](NC(=O)[C@@H]1CCCN1C(=O)[C@H](CCCNc1ncccn1)NC(=O)[C@H](Cc1c[nH]c2ccccc12)NC(=O)CCC(=O)NCCOCCOCCCCCCCl)C(C)C)C(N)=O [ct-2l] ({NH(CH2CH2O)2(CH2)6Cl-Suc}-W[Orn](2Pyrimidinyl)PVSI-NH2) | 2 |
| CC(C)[C@H](NC(=O)CCC(=O)NCCOCCOCCCCCCCl)C(=O)NCC(=O)N[C@@H](CCCNc1ncccn1)C(=O)N[C@@H](C)C(=O)N[C@@H](Cc1c[nH]c2ccccc12)C(=O)N[C@@H](CC(N)=O)C(=O)N[C@@H](Cc1ccc(O)cc1)C(=O)N[C@@H](C)C(N)=O [ct-2m] ({NH(CH2CH2O)2(CH2)6Cl-Suc}-VG[Orn](2Pyrimidinyl)AWNYA-NH2) | 2 |
